The source of these data is US9580423B2, “Bicyclic heterocycles as FGFR4 inhibitors” (Incyte Corporation, priority 2015, dated 2017).

Each structure is given as a SMILES string. Like-named read-outs stand apart in the source and are kept apart here.

The target of test [1] is FGFR1 (Homo sapiens (Human), UniProt P11362). The test can be described thus: FGFR Enzymatic Assay (FRET peptide phosphorylation), FGFR1. The conditions noted are these: read-out: FGFR1 IC50; pre-incubated for 4 hours.
Excerpt: (§1) The enzymes were purchased from Millipore or Invitrogen.
(§2) GraphPad prism3 was used to analyze the data. The IC50 values were derived by fitting the data to the equation for a sigmoidal dose-response with a variable slope. Y=Bottom+(Top-Bottom)/(1+10^((LogIC50−X)*HillSlope)) where X is the logarithm of concentration and Y is the response.
In test [2] the target is FGFR2 (Homo sapiens (Human), UniProt P21802). The test can be described thus: FGFR Enzymatic Assay (FRET peptide phosphorylation), FGFR2. The conditions noted are these: read-out: FGFR2 IC50; pre-incubated for 4 hours.
FGFR2, sequence (P21802 22-821): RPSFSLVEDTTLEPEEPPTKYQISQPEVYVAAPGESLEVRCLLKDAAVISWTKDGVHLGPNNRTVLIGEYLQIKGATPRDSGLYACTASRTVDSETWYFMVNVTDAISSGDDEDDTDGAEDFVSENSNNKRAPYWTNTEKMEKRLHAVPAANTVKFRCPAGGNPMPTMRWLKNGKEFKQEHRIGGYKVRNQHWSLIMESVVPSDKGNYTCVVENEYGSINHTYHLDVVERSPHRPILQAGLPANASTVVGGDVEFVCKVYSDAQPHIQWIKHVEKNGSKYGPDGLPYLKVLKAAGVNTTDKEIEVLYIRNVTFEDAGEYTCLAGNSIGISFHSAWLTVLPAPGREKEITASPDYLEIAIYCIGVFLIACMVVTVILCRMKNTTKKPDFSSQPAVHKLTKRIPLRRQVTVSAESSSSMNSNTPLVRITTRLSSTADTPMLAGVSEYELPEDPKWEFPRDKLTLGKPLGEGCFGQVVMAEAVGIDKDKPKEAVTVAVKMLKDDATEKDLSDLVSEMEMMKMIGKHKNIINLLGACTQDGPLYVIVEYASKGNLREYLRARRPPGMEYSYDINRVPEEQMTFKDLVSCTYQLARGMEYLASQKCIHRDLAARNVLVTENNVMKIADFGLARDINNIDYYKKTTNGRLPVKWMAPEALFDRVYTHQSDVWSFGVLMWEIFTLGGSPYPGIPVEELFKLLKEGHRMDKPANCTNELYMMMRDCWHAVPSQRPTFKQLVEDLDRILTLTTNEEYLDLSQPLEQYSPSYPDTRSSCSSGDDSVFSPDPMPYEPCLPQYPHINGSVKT
Excerpt: as §1, §2
In test [3] the target is FGFR3 (Homo sapiens (Human), UniProt P22607). Kind of test: FGFR Enzymatic Assay (FRET peptide phosphorylation), FGFR3. The conditions noted are these: read-out: FGFR3 IC50; pre-incubated for 4 hours.
FGFR3, sequence (P22607 23-806): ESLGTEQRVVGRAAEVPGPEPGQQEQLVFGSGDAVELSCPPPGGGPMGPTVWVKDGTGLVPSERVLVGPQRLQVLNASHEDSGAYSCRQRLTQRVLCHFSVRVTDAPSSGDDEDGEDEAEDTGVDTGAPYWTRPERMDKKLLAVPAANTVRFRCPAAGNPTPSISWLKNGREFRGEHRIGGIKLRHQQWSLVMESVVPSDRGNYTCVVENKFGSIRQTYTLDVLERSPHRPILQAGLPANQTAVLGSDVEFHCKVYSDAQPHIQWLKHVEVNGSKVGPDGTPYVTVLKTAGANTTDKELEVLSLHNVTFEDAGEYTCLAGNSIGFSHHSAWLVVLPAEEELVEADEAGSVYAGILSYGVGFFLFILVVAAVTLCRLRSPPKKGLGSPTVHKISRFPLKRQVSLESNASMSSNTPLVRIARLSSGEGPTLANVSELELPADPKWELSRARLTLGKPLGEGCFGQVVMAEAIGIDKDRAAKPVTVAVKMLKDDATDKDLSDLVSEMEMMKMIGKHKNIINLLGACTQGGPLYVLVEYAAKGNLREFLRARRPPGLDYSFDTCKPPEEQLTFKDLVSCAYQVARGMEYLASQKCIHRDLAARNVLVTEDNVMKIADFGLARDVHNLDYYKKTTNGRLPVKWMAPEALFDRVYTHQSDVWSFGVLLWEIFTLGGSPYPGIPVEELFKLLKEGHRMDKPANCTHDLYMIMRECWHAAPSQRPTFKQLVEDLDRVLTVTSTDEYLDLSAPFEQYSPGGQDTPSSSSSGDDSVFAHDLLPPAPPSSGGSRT
Excerpt: as §1, §2
Test [4] concerns the target FGFR4 (Homo sapiens (Human), UniProt P22455). The test can be described thus: FGFR Enzymatic Assay (FRET peptide phosphorylation), FGFR4. The conditions noted are these: for FGFR1/FGFR4 IC50 ratio / FGFR2/FGFR4 IC50 ratio / FGFR3/FGFR4 IC50 ratio: IC50 ratio showing FGFR4 selectivity.
Excerpt: as §1, §2
Setting [5] is: read-out: FGFR4 IC50, pre-incubated for 4 hours.

FGFR1, sequence (P11362 22-822): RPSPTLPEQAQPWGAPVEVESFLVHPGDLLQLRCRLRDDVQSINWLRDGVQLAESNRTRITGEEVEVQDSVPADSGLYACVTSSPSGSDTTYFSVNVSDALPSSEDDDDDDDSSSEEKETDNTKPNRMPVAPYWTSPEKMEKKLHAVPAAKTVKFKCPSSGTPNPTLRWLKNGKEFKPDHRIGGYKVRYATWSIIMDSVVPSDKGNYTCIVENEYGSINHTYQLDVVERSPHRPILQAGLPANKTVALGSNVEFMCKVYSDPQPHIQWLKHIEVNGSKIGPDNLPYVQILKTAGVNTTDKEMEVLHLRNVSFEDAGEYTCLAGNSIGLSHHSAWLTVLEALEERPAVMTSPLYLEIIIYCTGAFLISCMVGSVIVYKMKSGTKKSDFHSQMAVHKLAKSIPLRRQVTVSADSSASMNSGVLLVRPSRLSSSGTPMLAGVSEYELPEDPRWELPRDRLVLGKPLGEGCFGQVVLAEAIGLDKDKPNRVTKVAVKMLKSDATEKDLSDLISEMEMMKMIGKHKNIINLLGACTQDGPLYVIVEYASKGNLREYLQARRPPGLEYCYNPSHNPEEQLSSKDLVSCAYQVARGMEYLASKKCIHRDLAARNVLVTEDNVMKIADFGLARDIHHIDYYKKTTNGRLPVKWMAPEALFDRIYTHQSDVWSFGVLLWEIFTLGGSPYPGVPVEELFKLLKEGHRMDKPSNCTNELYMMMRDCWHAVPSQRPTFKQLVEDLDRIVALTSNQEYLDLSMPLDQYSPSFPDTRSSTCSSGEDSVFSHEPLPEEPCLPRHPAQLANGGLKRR
FGFR4, sequence (P22455 22-802): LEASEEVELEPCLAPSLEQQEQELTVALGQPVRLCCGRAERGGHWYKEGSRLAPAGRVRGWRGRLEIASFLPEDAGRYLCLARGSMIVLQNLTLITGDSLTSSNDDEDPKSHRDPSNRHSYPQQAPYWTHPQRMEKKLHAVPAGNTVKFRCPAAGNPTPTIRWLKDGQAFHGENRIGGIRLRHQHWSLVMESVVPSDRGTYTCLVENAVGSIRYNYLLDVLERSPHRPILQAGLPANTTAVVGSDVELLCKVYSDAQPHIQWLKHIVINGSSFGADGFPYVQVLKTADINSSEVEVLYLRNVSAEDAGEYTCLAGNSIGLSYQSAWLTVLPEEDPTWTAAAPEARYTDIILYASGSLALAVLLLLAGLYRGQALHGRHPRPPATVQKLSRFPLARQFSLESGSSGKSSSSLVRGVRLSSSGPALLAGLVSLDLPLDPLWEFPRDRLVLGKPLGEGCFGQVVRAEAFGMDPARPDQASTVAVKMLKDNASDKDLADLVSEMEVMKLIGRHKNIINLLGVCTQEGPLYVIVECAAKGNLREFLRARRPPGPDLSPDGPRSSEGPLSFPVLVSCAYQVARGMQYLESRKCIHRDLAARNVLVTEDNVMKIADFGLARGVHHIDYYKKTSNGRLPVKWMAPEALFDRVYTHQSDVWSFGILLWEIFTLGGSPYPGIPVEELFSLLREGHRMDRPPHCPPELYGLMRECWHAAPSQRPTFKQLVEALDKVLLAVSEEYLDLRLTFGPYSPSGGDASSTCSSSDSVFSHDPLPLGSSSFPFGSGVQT

`C=CC(=O)Nc1cnn(Cc2ccon2)c1-c1cc2c(cn1)CN(c1c(F)c(OC)cc(OC)c1F)C(=O)C21CC1` [Example 25, N-(5-(2′-(2,6-difluoro-3,5-dimethoxyphenyl)-3′-oxo-2′,3′-dihydro-1′H-spiro[cyclopropane-1,4′-[2,7]naphthyridine]-6′-yl)-1-(isoxazol-3-ylmethyl)-1H-pyrazol-4-yl)acrylamide]: the IC50 (usually the concentration at which inhibition is half-maximal) in test [1] was greater than 200 nM; in test [2] it was greater than 200 nM; in test [3], greater than 200 nM; in test [4] (setting [5]), less than 10 nM. Moreover, the “FGFR1/FGFR4 IC50 ratio” value in test [4] (pre-incubated for 4 hours) is reported as greater than 100. Also, the “FGFR2/FGFR4 IC50 ratio” value in test [4] (pre-incubated for 4 hours) is greater than 100. In addition, in test [4] (pre-incubated for 4 hours), the “FGFR3/FGFR4 IC50 ratio” value was greater than 100.

With `C=CC(=O)Nc1cnn(Cc2ccnn2C)c1-c1cc2c(cn1)CN(c1c(F)c(OC)cc(OC)c1F)C(=O)C21CC1` [Example 26, N-(5-(2′-(2,6-difluoro-3,5-dimethoxyphenyl)-3′-oxo-2′,3′-dihydro-1′H-spiro[cyclopropane-1,4′-[2,7]naphthyridine]-6′-yl)-1-((1-methyl-1H-pyrazol-5-yl)methyl)-1H-pyrazol-4-yl)acrylamide], the IC50 in test [1] was greater than 200 nM; in test [2], greater than 200 nM; in test [3] it was greater than 200 nM; in test [4] it was 10 to 30 nM. In addition, the “FGFR1/FGFR4 IC50 ratio” value in test [4] (pre-incubated for 4 hours) is greater than 100. Moreover, the “FGFR2/FGFR4 IC50 ratio” value in test [4] (pre-incubated for 4 hours) is greater than 50. The “FGFR3/FGFR4 IC50 ratio” value in test [4] (pre-incubated for 4 hours) was greater than 100.

With `C=CC(=O)Nc1cnn(Cc2cnn(C)c2)c1-c1cc2c(cn1)CN(c1c(F)c(OC)cc(OC)c1F)C(=O)C21CC1` [Example 27, N-(5-(2′-(2,6-difluoro-3,5-dimethoxyphenyl)-3′-oxo-2′,3′-dihydro-1′H-spiro[cyclopropane-1,4′-[2,7]naphthyridine]-6′-yl)-1-((1-methyl-1H-pyrazol-4-yl)methyl)-1H-pyrazol-4-yl)acrylamide], the IC50 is greater than 200 nM in test [1], greater than 200 nM in test [2], greater than 200 nM in test [3] and less than 10 nM in test [4] (setting [5]). Also, in test [4] (pre-incubated for 4 hours), the “FGFR1/FGFR4 IC50 ratio” value was greater than 100. The “FGFR2/FGFR4 IC50 ratio” value in test [4] (pre-incubated for 4 hours) was greater than 100. The “FGFR3/FGFR4 IC50 ratio” value in test [4] (pre-incubated for 4 hours) is greater than 100.

As to `C=CC(=O)Nc1cnn(C[C@@H]2CCOC2)c1-c1cc2c(cn1)CN(c1c(F)c(OC)cc(OC)c1F)C(=O)C21CC1` [Example 28, (S)-N-(5-(2′-(2,6-difluoro-3,5-dimethoxyphenyl)-3′-oxo-2′,3′-dihydro-1′H-spiro[cyclopropane-1,4′-[2,7]naphthyridine]-6′-yl)-1-((tetrahydrofuran-3-yl)methyl)-1H-pyrazol-4-yl)acrylamide], the IC50 in test [1] is greater than 200 nM; in test [2], greater than 200 nM; in test [3], greater than 200 nM; in test [4] it was 10 to 30 nM. Further, in test [4] (pre-incubated for 4 hours), the “FGFR1/FGFR4 IC50 ratio” value is reported as greater than 100. Moreover, the “FGFR2/FGFR4 IC50 ratio” value in test [4] (pre-incubated for 4 hours) is reported as greater than 100. In addition, in test [4] (pre-incubated for 4 hours), the “FGFR3/FGFR4 IC50 ratio” value is given as greater than 100.

With `C=CC(=O)Nc1cnn(C[C@H]2CCOC2)c1-c1cc2c(cn1)CN(c1c(F)c(OC)cc(OC)c1F)C(=O)C21CC1` [Example 29, (R)-N-(5-(2′-(2,6-difluoro-3,5-dimethoxyphenyl)-3′-oxo-2′,3′-dihydro-1′H-spiro[cyclopropane-1,4′-[2,7]naphthyridine]-6′-yl)-1-((tetrahydrofuran-3-yl)methyl)-1H-pyrazol-4-yl)acrylamide], the IC50 in test [1] is greater than 200 nM; in test [2], greater than 200 nM; in test [3], greater than 200 nM; in test [4] (setting [5]) it was less than 10 nM. Further, in test [4] (pre-incubated for 4 hours), the “FGFR1/FGFR4 IC50 ratio” value is greater than 100. In test [4] (pre-incubated for 4 hours), the “FGFR2/FGFR4 IC50 ratio” value was greater than 100. For the same compound, the “FGFR3/FGFR4 IC50 ratio” value in test [4] (pre-incubated for 4 hours) is recorded as greater than 100.

Regarding `C=CC(=O)Nc1cnn(C[C@H]2CCCO2)c1-c1cc2c(cn1)CN(c1c(F)c(OC)cc(OC)c1F)C(=O)C21CC1` [Example 30, (R)-N-(5-(2′-(2,6-difluoro-3,5-dimethoxyphenyl)-3′-oxo-2′,3′-dihydro-1′H-spiro[cyclopropane-1,4′-[2,7]naphthyridine]-6′-yl)-1-((tetrahydrofuran-2-yl)methyl)-1H-pyrazol-4-yl)acrylamide], the IC50 in test [1] is greater than 200 nM; in test [2], greater than 200 nM; in test [3], greater than 200 nM; in test [4] (setting [5]) it was less than 10 nM. For the same compound, the “FGFR1/FGFR4 IC50 ratio” value in test [4] (pre-incubated for 4 hours) is reported as greater than 100. For the same compound, the “FGFR2/FGFR4 IC50 ratio” value in test [4] (pre-incubated for 4 hours) was greater than 100. Moreover, the “FGFR3/FGFR4 IC50 ratio” value in test [4] (pre-incubated for 4 hours) is greater than 100.

For `C=CC(=O)Nc1cn(CCOC)nc1-c1cc2c(cn1)CN(c1c(F)c(OC)cc(OC)c1F)C(=O)C21CC1` [Example 32, N-(3-(2′-(2,6-difluoro-3,5-dimethoxyphenyl)-3′-oxo-2′,3′-dihydro-1′H-spiro[cyclopropane-1,4′-[2,7]naphthyridine]-6′-yl)-1-(2-methoxyethyl)-1H-pyrazol-4-yl)acrylamide], the IC50 in test [1] was greater than 200 nM; in test [2] it was greater than 200 nM; in test [3], greater than 200 nM; in test [4] (setting [5]), less than 10 nM. Also, the “FGFR1/FGFR4 IC50 ratio” value in test [4] (pre-incubated for 4 hours) is reported as greater than 100. The “FGFR2/FGFR4 IC50 ratio” value in test [4] (pre-incubated for 4 hours) is greater than 100. Further, the “FGFR3/FGFR4 IC50 ratio” value in test [4] (pre-incubated for 4 hours) is on record as greater than 100.

As to `C=CC(=O)Nc1cn(CCOC(F)(F)F)nc1-c1cc2c(cn1)CN(c1c(F)c(OC)cc(OC)c1F)C(=O)C21CC1` [Example 33, N-(3-(2′-(2,6-difluoro-3,5-dimethoxyphenyl)-3′-oxo-2′,3′-dihydro-1′H-spiro[cyclopropane-1,4′-[2,7]naphthyridine]-6′-yl)-1-(2-(trifluoromethoxy)ethyl)-1H-pyrazol-4-yl)acrylamide], the IC50 in test [1] is greater than 200 nM; in test [2] it was greater than 200 nM; in test [3], greater than 200 nM; in test [4] (setting [5]) it was less than 10 nM. In addition, in test [4] (pre-incubated for 4 hours), the “FGFR1/FGFR4 IC50 ratio” value is recorded as greater than 100. The “FGFR2/FGFR4 IC50 ratio” value in test [4] (pre-incubated for 4 hours) is listed as greater than 100. The “FGFR3/FGFR4 IC50 ratio” value in test [4] (pre-incubated for 4 hours) was greater than 100.

As for `C=CC(=O)Nc1cn(CCN2CCOCC2)nc1-c1cc2c(cn1)CN(c1c(F)c(OC)cc(OC)c1F)C(=O)C21CC1` [Example 34, N-(3-(2′-(2,6-difluoro-3,5-dimethoxyphenyl)-3′-oxo-2′,3′-dihydro-1′H-spiro[cyclopropane-1,4′-[2,7]naphthyridine]-6′-yl)-1-(2-morpholinoethyl)-1H-pyrazol-4-yl)acrylamide], the IC50 was greater than 200 nM in test [1], greater than 200 nM in test [2], greater than 200 nM in test [3] and less than 10 nM in test [4] (setting [5]). For the same compound, in test [4] (pre-incubated for 4 hours), the “FGFR1/FGFR4 IC50 ratio” value was greater than 100. For the same compound, the “FGFR2/FGFR4 IC50 ratio” value in test [4] (pre-incubated for 4 hours) was greater than 100. For the same compound, the “FGFR3/FGFR4 IC50 ratio” value in test [4] (pre-incubated for 4 hours) is greater than 100.

Turning to `C=CC(=O)Nc1cn(CC2CCOCC2)nc1-c1cc2c(cn1)CN(c1c(F)c(OC)cc(OC)c1F)C(=O)C21CC1` [Example 35, N-(3-(2′-(2,6-difluoro-3,5-dimethoxyphenyl)-3′-oxo-2′,3′-dihydro-1′H-spiro[cyclopropane-1,4′-[2,7]naphthyridine]-6′-yl)-1-((tetrahydro-2H-pyran-4-yl)methyl)-1H-pyrazol-4-yl)acrylamide], the IC50 in test [1] is greater than 200 nM; in test [2], greater than 200 nM; in test [3], greater than 200 nM; in test [4] (setting [5]) it was less than 10 nM. In addition, in test [4] (pre-incubated for 4 hours), the “FGFR1/FGFR4 IC50 ratio” value was greater than 100. The “FGFR2/FGFR4 IC50 ratio” value in test [4] (pre-incubated for 4 hours) is greater than 100. In addition, in test [4] (pre-incubated for 4 hours), the “FGFR3/FGFR4 IC50 ratio” value was greater than 100.

`C=CC(=O)Nc1cn(CC(=O)N(C)C)nc1-c1cc2c(cn1)CN(c1c(F)c(OC)cc(OC)c1F)C(=O)C21CC1` [Example 36, N-(3-(2′-(2,6-difluoro-3,5-dimethoxyphenyl)-3′-oxo-2′,3′-dihydro-1′H-spiro[cyclopropane-1,4′-[2,7]naphthyridine]-6′-yl)-1-(2-(dimethylamino)-2-oxoethyl)-1H-pyrazol-4-yl)acrylamide]: the IC50 in test [1] was greater than 200 nM; in test [2] it was greater than 200 nM; in test [3] it was greater than 200 nM; in test [4] (setting [5]), less than 10 nM. Further, the “FGFR1/FGFR4 IC50 ratio” value in test [4] (pre-incubated for 4 hours) was greater than 100. For the same compound, the “FGFR2/FGFR4 IC50 ratio” value in test [4] (pre-incubated for 4 hours) is recorded as greater than 100. Also, in test [4] (pre-incubated for 4 hours), the “FGFR3/FGFR4 IC50 ratio” value is given as greater than 100.

As to `C=CC(=O)Nc1ccc(C)c(-c2ncc3c(n2)C2(CC2)C(=O)N(c2c(F)c(OC)cc(OC)c2F)C3)c1` [Example 37, N-(3-(6′-(2,6-difluoro-3,5-dimethoxyphenyl)-7′-oxo-6′,7′-dihydro-5′H-spiro[cyclopropane-1,8′-pyrido[4,3-d]pyrimidine]-2′-yl)-4-methylphenyl)acrylamide], the concentration for half-maximal inhibition (IC50) in test [1] was greater than 200 nM; in test [2], greater than 200 nM; in test [3] it was greater than 200 nM; in test [4] (setting [5]), less than 10 nM. For the same compound, the “FGFR1/FGFR4 IC50 ratio” value in test [4] (pre-incubated for 4 hours) is listed as greater than 100. The “FGFR2/FGFR4 IC50 ratio” value in test [4] (pre-incubated for 4 hours) is greater than 100. Besides, in test [4] (pre-incubated for 4 hours), the “FGFR3/FGFR4 IC50 ratio” value is given as greater than 100.
